ChEMBL document CHEMBL4834428 (J Med Chem, 2021)

Assays:
[1] = target: T1, NAD-dependent protein deacetylase sirtuin-1 (Homo sapiens, UniProt Q96EB6)
T1 sequence (Q96EB6 whole entry): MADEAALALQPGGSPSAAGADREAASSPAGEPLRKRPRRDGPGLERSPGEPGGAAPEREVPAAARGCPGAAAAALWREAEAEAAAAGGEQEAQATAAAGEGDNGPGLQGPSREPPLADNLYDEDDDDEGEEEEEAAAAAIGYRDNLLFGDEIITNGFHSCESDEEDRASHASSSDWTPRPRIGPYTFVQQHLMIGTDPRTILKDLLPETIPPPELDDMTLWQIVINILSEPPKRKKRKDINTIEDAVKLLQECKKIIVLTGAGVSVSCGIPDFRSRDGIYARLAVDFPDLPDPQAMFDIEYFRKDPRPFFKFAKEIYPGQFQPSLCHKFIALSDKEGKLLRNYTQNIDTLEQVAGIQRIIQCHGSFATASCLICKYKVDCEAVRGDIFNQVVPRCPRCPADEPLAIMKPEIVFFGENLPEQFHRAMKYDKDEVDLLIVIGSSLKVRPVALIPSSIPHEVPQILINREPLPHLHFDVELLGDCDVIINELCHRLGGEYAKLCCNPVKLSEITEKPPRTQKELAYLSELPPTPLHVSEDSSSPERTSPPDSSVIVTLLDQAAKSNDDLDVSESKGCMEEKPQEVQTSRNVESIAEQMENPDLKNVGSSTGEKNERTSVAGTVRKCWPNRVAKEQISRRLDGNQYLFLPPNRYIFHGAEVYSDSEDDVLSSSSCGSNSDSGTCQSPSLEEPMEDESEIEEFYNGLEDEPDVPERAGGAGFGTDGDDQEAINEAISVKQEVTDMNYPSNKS
Description: Inhibition of His6-tagged SIRT1 (unknown origin) expressed in Escherichia coli BL21 (DE3) preincubated for 15 mins followed by NAD+ addition and measured after 30 mins by FLucK529Ac based luminescence assay

[2] = target: T2, NAD-dependent protein deacetylase sirtuin-3, mitochondrial (Homo sapiens, UniProt Q9NTG7); test: Inhibition of His6-tagged/TEV fused SIRT3 (unknown origin) expressed in Escherichia coli BL21 (DE3) preincubated for 15 mins followed by NAD+ addition and measured after 30 mins by FLucK529Ac based luminescence assay
T2 sequence (Q9NTG7 whole entry): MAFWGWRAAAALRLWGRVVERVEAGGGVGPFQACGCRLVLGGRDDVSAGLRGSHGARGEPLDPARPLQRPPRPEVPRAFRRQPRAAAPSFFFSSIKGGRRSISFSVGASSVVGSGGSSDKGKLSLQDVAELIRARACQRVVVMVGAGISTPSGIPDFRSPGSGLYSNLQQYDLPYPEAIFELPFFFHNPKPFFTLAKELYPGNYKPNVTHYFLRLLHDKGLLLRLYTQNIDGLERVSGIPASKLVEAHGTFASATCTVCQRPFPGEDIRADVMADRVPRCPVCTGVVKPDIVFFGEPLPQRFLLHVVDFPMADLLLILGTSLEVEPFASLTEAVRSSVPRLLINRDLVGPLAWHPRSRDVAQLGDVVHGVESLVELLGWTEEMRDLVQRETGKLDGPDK

[3] = target: T3, NAD-dependent protein deacetylase sirtuin-2 (Homo sapiens, UniProt Q8IXJ6); test: Inhibition of His6-tagged/TEV fused SIRT2 (unknown origin) expressed in Escherichia coli BL21 (DE3) preincubated for 15 mins followed by NAD+ addition and measured after 30 mins by FLucK529Ac based luminescence assay
T3 sequence (Q8IXJ6 whole entry): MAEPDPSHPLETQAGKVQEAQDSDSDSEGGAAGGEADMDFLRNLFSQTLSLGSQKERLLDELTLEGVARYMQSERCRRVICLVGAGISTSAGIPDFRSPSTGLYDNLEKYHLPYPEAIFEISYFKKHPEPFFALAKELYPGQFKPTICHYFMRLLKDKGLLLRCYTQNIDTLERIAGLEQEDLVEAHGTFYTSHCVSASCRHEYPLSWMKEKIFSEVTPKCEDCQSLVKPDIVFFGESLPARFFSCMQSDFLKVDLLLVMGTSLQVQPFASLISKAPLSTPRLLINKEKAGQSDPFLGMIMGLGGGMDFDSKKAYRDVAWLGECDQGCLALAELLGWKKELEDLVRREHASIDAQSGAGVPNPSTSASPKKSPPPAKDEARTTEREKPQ

SMILES | IC50 [1] [µM] | IC50 [2] [µM] | IC50 [3] [µM]
NC(=O)C1CN(Cc2ccc(C(F)(F)F)cc2)c2ccccc2O1 (centres undefined) | 28.5 | > 60 | 22.8
COc1ccc(NC(=O)N2CC(C(N)=O)Oc3ccccc32)cc1 (centres undefined) | > 60 | > 60 | > 60
Cc1ccc(S(=O)(=O)N2CC(C(N)=O)Oc3ccccc32)cc1 (centres undefined) | > 60 | > 60 | > 60
CS(=O)(=O)N1CC(C(N)=O)Oc2ccccc21 (centres undefined) | > 60 | > 60 | > 60
CC(=O)Nc1nc(CN2CC(C(N)=O)Oc3ccccc32)cs1 (centres undefined) | 0.62 | – | > 60
NC(=O)C1CN(Cc2ccc3nonc3c2)c2ccccc2O1 (centres undefined) | > 60 | > 60 | 0.6
NC(=O)C1CN(C(=O)c2cccnc2)c2ccccc2O1 (centres undefined) | > 60 | > 60 | > 60
NC(=O)C1CNc2ccccc2O1 (centres undefined) | > 60 | > 60 | > 60
NC(=O)C1CN(C(=O)c2ccc(CCl)cc2)c2ccccc2O1 (centres undefined) | 48.8 | > 60 | > 60
NC(=O)C1CN(Cc2csc(N)n2)c2ccccc2O1 (centres undefined) | 1.48 | > 60 | > 60
COc1ccc(C(=O)N2CC(C(N)=O)Oc3ccccc32)cc1 (centres undefined) | > 60 | – | > 60
CC(C)CC(=O)N1CC(C(N)=O)Oc2ccccc21 (centres undefined) | > 60 | > 60 | > 60
C#CCN1CC(C(N)=O)Oc2ccccc21 (centres undefined) | > 60 | > 60 | > 60
N#Cc1cccc(NC(=O)N2CC(C(N)=O)Oc3ccccc32)c1 (centres undefined) | > 60 | > 60 | > 60
CC(C)(C)OC(=O)Nc1nc(CN2CC(C(N)=O)Oc3ccccc32)cs1 (centres undefined) | 5.63 | > 60 | > 60
CC(C)(C)OC(=O)c1ccc(CN2CC(C(N)=O)Oc3ccccc32)cc1 (centres undefined) | 20.1 | > 60 | 42
O=C(C1CN(Cc2ccccc2)c2ccccc2O1)N1CCCCC1 (centres undefined) | > 60 | > 60 | > 60
NC(=O)C1CN(Cc2cc(C(F)(F)F)cc(C(F)(F)F)c2)c2ccccc2O1 (centres undefined) | 6.04 | > 60 | 0.52
Cc1ccc(NC(=O)N2CC(C(N)=O)Oc3ccccc32)cc1 (centres undefined) | > 60 | > 60 | > 60
CC(=O)N1CC(C(N)=O)Oc2ccccc21 (centres undefined) | > 60 | > 60 | > 60
NC(=O)C1CN(S(=O)(=O)c2cccc3ccccc23)c2ccccc2O1 (centres undefined) | > 60 | > 60 | > 60
CCOC(=O)C1CNc2ccccc2O1 (centres undefined) | > 60 | > 60 | > 60
O=C(O)C1CNc2ccccc2O1 (centres undefined) | > 60 | > 60 | > 60
CN1CC(C(N)=O)Oc2ccccc21 (centres undefined) | > 60 | > 60 | > 60

Other lines, results leading:

IC50 [1] [µM] | IC50 [2] [µM] | IC50 [3] [µM] | SMILES
2.49 | > 60 | 22.2 | Cc1ccccc1CN1CC(C(N)=O)Oc2ccccc21 (centres undefined)
10.4 | > 60 | > 60 | CC(=O)Nc1ccc(CN2CC(C(N)=O)Oc3ccccc32)cc1 (centres undefined)
> 60 | > 60 | > 60 | CCOC(=O)C1CN(Cc2ccccc2)c2ccccc2O1 (centres undefined)
3.45 | > 60 | > 60 | COC(=O)c1ccc(CN2CC(C(N)=O)Oc3ccccc32)cc1 (centres undefined)
> 60 | > 60 | > 60 | NC(=O)C1CN(Cc2ccc(-c3ccccc3)cc2)c2ccccc2O1 (centres undefined)
8.54 | > 60 | > 60 | NC(=O)C1CN(Cc2ccccc2)c2ccccc2O1 (centres undefined)
– | > 60 | 10.6 | NC(=O)C1CN(Cc2ccccc2[N+](=O)[O-])c2ccccc2O1 (centres undefined)
4.7 | > 60 | 58 | NC(=O)C1CN(Cc2cccnc2)c2ccccc2O1 (centres undefined)
> 60 | > 60 | > 60 | NC(=O)C1CN(C(=O)c2ccccc2)c2ccccc2O1 (centres undefined)
2.4 | > 60 | > 60 | CC(=O)Nc1cccc(CN2CC(C(N)=O)Oc3ccccc32)c1 (centres undefined)
1.45 | > 60 | 31.8 | COc1ccc(CN2CC(C(N)=O)Oc3ccccc32)cc1 (centres undefined)
0.43 | > 60 | 11.2 | N#Cc1cccc(CN2CC(C(N)=O)Oc3ccccc32)c1 (centres undefined)
2.1 | > 60 | > 60 | NC(=O)C1CN(Cc2ccccn2)c2ccccc2O1 (centres undefined)
0.49 | > 60 | > 60 | COC(=O)c1ccccc1CN1CC(C(N)=O)Oc2ccccc21 (centres undefined)
13.9 | > 60 | > 60 | NC(=O)C1CN(Cc2ccccc2C(=O)O)c2ccccc2O1 (centres undefined)
> 60 | > 60 | > 60 | CNC(=O)C1CN(Cc2ccccc2)c2ccccc2O1 (centres undefined)
1.27 | > 60 | 1.76 | NC(=O)C1CN(Cc2cccc(Br)c2)c2ccccc2O1 (centres undefined)
0.47 | > 60 | > 60 | NC(=O)C1CN(Cc2ccccc2I)c2ccccc2O1 (centres undefined)

IC50 [1] [µM] | IC50 [2] [µM] | IC50 [3] [µM] | SMILES
31.6 | > 60 | > 60 | CC(=O)Nc1ccccc1CN1CC(C(N)=O)Oc2ccccc21 (centres undefined)
0.23 | > 60 | 4.19 | NC(=O)C1CN(Cc2cccc([N+](=O)[O-])c2)c2ccccc2O1 (centres undefined)
1.9 | > 60 | 26 | NC(=O)C1CN(Cc2ccc3c(c2)OCO3)c2ccccc2O1 (centres undefined)
37.4 | > 60 | > 60 | Cc1cccc(C)c1CN1CC(C(N)=O)Oc2ccccc21 (centres undefined)
0.97 | > 60 | 25 | NC(=O)C1CN(Cc2ccccc2C(F)(F)F)c2ccccc2O1 (centres undefined)
0.67 | > 60 | 33.6 | NC(=O)C1CN(Cc2ccccc2Cl)c2ccccc2O1 (centres undefined)
2.13 | > 60 | 15.4 | COc1cccc(CN2CC(C(N)=O)Oc3ccccc32)c1 (centres undefined)
0.82 | > 60 | 12.3 | NC(=O)C1CN(Cc2ccccc2O)c2ccccc2O1 (centres undefined)
> 60 | > 60 | > 60 | O=C(O)C1CN(Cc2ccccc2)c2ccccc2O1 (centres undefined)
47.3 | > 60 | 47.3 | N#Cc1ccccc1CN1CC(C(N)=O)Oc2ccccc21 (stereo in doubt; form 1)
8.05 | > 60 | 41.9 | NC(=O)C1CN(Cc2cn(Cc3ccccc3)nn2)c2ccccc2O1 (centres undefined)
1.77 | > 60 | 35.4 | NC(=O)C1CN(Cc2ccccc2F)c2ccccc2O1 (centres undefined)
4.91 | > 60 | 36.1 | NC(=O)C1CN(Cc2ccccc2N)c2ccccc2O1 (centres undefined)
1.06 | > 60 | 34.7 | NC(=O)C1CN(Cc2ccc([N+](=O)[O-])cc2)c2ccccc2O1 (centres undefined)
0.56 | > 60 | 16.6 | NC(=O)C1CN(Cc2ccccc2Br)c2ccccc2O1 (centres undefined)
0.11 | > 60 | 34 | N#Cc1ccccc1CN1CC(C(N)=O)Oc2ccccc21 (stereo in doubt; form 2)
14.1 | > 60 | 32.6 | NC(=O)C1CN(Cc2cnnn2Cc2ccccc2)c2ccccc2O1 (centres undefined)
